In the OligoGym collection:
Bases are written 5' to 3'; sugars and linkages follow in the same order, as letters with counts (s phosphorothioate, o phosphodiester; PS: all linkages phosphorothioate). C may stand for cytosine or 5-methylcytosine; the collection does not tell. l = locked nucleic acid (LNA); d = 2'-deoxy (DNA)

Target: HIF1A
Experiment: HeLa, 100 nM transfected, 24 h, mean of 3
Conditions: ASO

Row | Sequence | caspase activation (% of PBS control)
1 | GTTACTGCCTTCTTAC (sugars ldddldddddddldll, PS) | 135
2 | GTTACTGCCTTCTTAC (sugars ldddldddddddlldl, PS) | 245
3 | GTTACTGCCTTCTTAC (sugars ldddlddddddldddl, PS) | 137
4 | GTTACTGCCTTCTTAC (sugars ldddlddddddlddll, PS) | 133
5 | GTTACTGCCTTCTTAC (sugars ldddlddddddldldl, PS) | 161
6 | GTTACTGCCTTCTTAC (sugars ldddlddddddldlll, PS) | 162
7 | GTTACTGCCTTCTTAC (sugars ldddlddddddllddl, PS) | 125
8 | GTTACTGCCTTCTTAC (sugars ldddlddddddlldll, PS) | 165
9 | GTTACTGCCTTCTTAC (sugars ldddlddddddllldl, PS) | 261
10 | GTTACTGCCTTCTTAC (sugars lddldddddddddldl, PS) | 121
11 | GTTACTGCCTTCTTAC (sugars lddlddddddddlddl, PS) | 112
12 | GTTACTGCCTTCTTAC (sugars lddlddddddddldll, PS) | 130
13 | GTTACTGCCTTCTTAC (sugars lddlddddddddlldl, PS) | 177
14 | GTTACTGCCTTCTTAC (sugars lddldddddddldddl, PS) | 88.6
15 | GTTACTGCCTTCTTAC (sugars lddldddddddlddll, PS) | 129
16 | GTTACTGCCTTCTTAC (sugars lddldddddddldldl, PS) | 135
17 | GTTACTGCCTTCTTAC (sugars lddldddddddldlll, PS) | 154
18 | GTTACTGCCTTCTTAC (sugars lddldddddddllddl, PS) | 135
19 | GTTACTGCCTTCTTAC (sugars lddldddddddlldll, PS) | 151
20 | GTTACTGCCTTCTTAC (sugars lddldddddddllldl, PS) | 227
21 | GTTACTGCCTTCTTAC (sugars lddllddddddddldl, PS) | 246
22 | GTTACTGCCTTCTTAC (sugars lddlldddddddlddl, PS) | 229
23 | GTTACTGCCTTCTTAC (sugars lddlldddddddldll, PS) | 240

Row | Sequence | caspase activation (% of PBS control)
24 | GTTACTGCCTTCTTAC (sugars lddlldddddddlldl, PS) | 374
25 | GTTACTGCCTTCTTAC (sugars lddllddddddldddl, PS) | 188
26 | GTTACTGCCTTCTTAC (sugars lddllddddddlddll, PS) | 218
27 | GTTACTGCCTTCTTAC (sugars lddllddddddldldl, PS) | 207
28 | GTTACTGCCTTCTTAC (sugars lddllddddddldlll, PS) | 237
29 | GTTACTGCCTTCTTAC (sugars lddllddddddllddl, PS) | 268
30 | GTTACTGCCTTCTTAC (sugars lddllddddddlldll, PS) | 196
31 | GTTACTGCCTTCTTAC (sugars lddllddddddllldl, PS) | 414
32 | GTTACTGCCTTCTTAC (sugars ldlddddddddddldl, PS) | 119
33 | GTTACTGCCTTCTTAC (sugars ldldddddddddlddl, PS) | 118
34 | GTTACTGCCTTCTTAC (sugars ldldddddddddldll, PS) | 112
35 | GTTACTGCCTTCTTAC (sugars ldldddddddddlldl, PS) | 165
36 | GTTACTGCCTTCTTAC (sugars ldlddddddddldddl, PS) | 115
37 | GTTACTGCCTTCTTAC (sugars ldlddddddddlddll, PS) | 130
38 | GTTACTGCCTTCTTAC (sugars ldlddddddddldldl, PS) | 145
39 | GTTACTGCCTTCTTAC (sugars ldlddddddddldlll, PS) | 155
40 | GTTACTGCCTTCTTAC (sugars ldlddddddddllddl, PS) | 158
41 | GTTACTGCCTTCTTAC (sugars ldlddddddddlldll, PS) | 135
42 | GTTACTGCCTTCTTAC (sugars ldlddddddddllldl, PS) | 271
43 | GTTACTGCCTTCTTAC (sugars ldldlddddddddddl, PS) | 175
44 | GTTACTGCCTTCTTAC (sugars ldldldddddddddll, PS) | 151
45 | GTTACTGCCTTCTTAC (sugars ldldlddddddddldl, PS) | 201
46 | GTTACTGCCTTCTTAC (sugars ldldlddddddddlll, PS) | 214

Row | Sequence | caspase activation (% of PBS control)
47 | GTTACTGCCTTCTTAC (sugars ldldldddddddlddl, PS) | 220
48 | GTTACTGCCTTCTTAC (sugars ldldldddddddldll, PS) | 214
49 | GTTACTGCCTTCTTAC (sugars ldldldddddddlldl, PS) | 280
50 | GTTACTGCCTTCTTAC (sugars ldldldddddddllll, PS) | 257
51 | GTTACTGCCTTCTTAC (sugars ldldlddddddldddl, PS) | 234
52 | GTTACTGCCTTCTTAC (sugars ldldlddddddlddll, PS) | 220
53 | GTTACTGCCTTCTTAC (sugars ldldlddddddldldl, PS) | 251
54 | GTTACTGCCTTCTTAC (sugars ldldlddddddldlll, PS) | 231
55 | GTTACTGCCTTCTTAC (sugars ldldlddddddllddl, PS) | 282
56 | GTTACTGCCTTCTTAC (sugars ldldlddddddlldll, PS) | 250
57 | GTTACTGCCTTCTTAC (sugars ldldlddddddllldl, PS) | 354
58 | GTTACTGCCTTCTTAC (sugars ldldlddddddlllll, PS) | 342
59 | GTTACTGCCTTCTTAC (sugars ldlldddddddddldl, PS) | 142
60 | GTTACTGCCTTCTTAC (sugars ldllddddddddlddl, PS) | 183
61 | GTTACTGCCTTCTTAC (sugars ldllddddddddldll, PS) | 181
62 | GTTACTGCCTTCTTAC (sugars ldllddddddddlldl, PS) | 192
63 | GTTACTGCCTTCTTAC (sugars ldlldddddddldddl, PS) | 213
64 | GTTACTGCCTTCTTAC (sugars ldlldddddddlddll, PS) | 191
65 | GTTACTGCCTTCTTAC (sugars ldlldddddddldldl, PS) | 187
66 | GTTACTGCCTTCTTAC (sugars ldlldddddddldlll, PS) | 195
67 | GTTACTGCCTTCTTAC (sugars ldlldddddddllddl, PS) | 255
68 | GTTACTGCCTTCTTAC (sugars ldlldddddddlldll, PS) | 218
69 | GTTACTGCCTTCTTAC (sugars ldlldddddddllldl, PS) | 365
